According to patent US20020188202A1, “Method of diagnosis and treatment and related compositions and apparatus” (priority 1996, published 2002):
Entries after “also recorded” stand apart in the source; their conditions may differ.

Legend:
[1] = test system: patients with cerebral vasospasm; assay: Vasoactive medications tried on Applicant's patients with vasospasm, monitored by Transcranial Doppler (TCD), exam and symptoms
Excerpt: As headache was a major complaint of many of Applicant's patients, we tried these medications out including Imitrex (Sumatriptan), IM Toradol (Ketoralac) and other medications under direct monitoring. […] Rather, it was expected that one or another set of medications might help point the way into using specific classes of medications or approaches. Accordingly, each of these patients. equivalent of a large number of patients, were monitored continuously across the day.
With respect to the different monitoring tools, some were more helpful than others. […] The Brain Stem Auditory Evoked Response and other evoked potential tests were very insensitive tools for monitoring, because of the length of time required to perform the test after short-acting medications were given in IM or sublingual or nasal spray administration route. […] These symptoms included not only headache, but also sensations of confusion, balance disorder, abnormal Romberg or Tandem Gait of other neurological abnormalities.
As headache was a major complaint of many of these patients, Applicant tried these medications out including Imitrex (Sumatriptan), IM Toradol (Ketoralac) and other medications under direct monitoring. […] Rather, it was expected that one or another set of medications might help point the way into using specific classes of medications or approaches. Accordingly, each of these patients, equivalent of a large number of patients, is monitored continuously across the day.
With respect to the different monitoring tools, some were more helpful than others. […] The Brain Stem Auditory Evoked Response and other evoked potential tests were very insensitive tools for monitoring, because of the length of time required to perform the test after short-acting medications were given in IM or sublingual or nasal spray administration route.

[2] = test system: adult ADD patients with vasospasm; assay: Attention Deficit Disorder siblings treated with vasodilators, serial TCD and neuropsychological testing; assay type: in vivo, human patients; conditions: male; for right MCA mean flow velocity: baseline 0.86; for left MCA mean flow velocity: baseline 0.92
Experimental: Both were administered a battery of tests which measured neuropsychological functioning and personality variables.
On referral for neurological evaluation, mild physical and significant objective testing abnormalities were found. […] Both, further, had difficulty performing a Tandem Gait with complete ease. The physical exam was otherwise normal. An EEG and computerized EEG were performed and were abnormal.
Both individuals were treated with vasodilating medications for 10 months and received psychotherapy and vocational counseling. Relaxation and hypnotherapy were also used to develop visualization skills for both recall of successful social and work experiences and to visualize successful outcomes of activities to do.
In serial testing, the […] underwent TCD's on three separate occasions on the same day. […] By the end of the day, […] identified that […] could read, understand and retain news articles and magazine articles. […] could also follow a television show throughout. […] could do neither at the beginning of the day.
On the basis of the objective disorders of flow and the patient's reported and observed improvement during the trial episode of administering medications to decrease the observed vasospasm, we started the sibling on vasodilators. […] This regimen was made up of a low dose Calcium Channel Blocker, and an ACE inhibitor along with low dose Nitroglycerine and a Clonidine patch.

[3] = test system: migraine patients with vasospasm on TCD; assay: Migraine patients treated with Nitroglycerine patches, TCD and neurological exam; assay type: in vivo, human patients
Experimental: All patients are evaluated with a complete history, physical exam, and neurological exam by a Board Certified Neurologist. All patients have blood work consisting of a CBC with differential count and platelets as well as an SMA-30 obtained. All whiplash related patients underwent a CT or MRI of the brain, EEG and qEEG, B-mode and spectral analysis ultrasound of the subclavian, carotid, and vertebral circulation, and Transcranial Doppler (TCD) examination of the intracranial circulation. In some situations, repetitive Transcranial Doppler examinations are performed on the same patient in the same day. Initially, these tests are performed by maintaining the probe on the patient's head through the course of several hours, but later the technique involves using the same probe, patient position, technician, depth, and cranial window with serial but interrupted exams across the course of the day. In all cases, the highest spectral frequencies are recorded, as well as repeat exams at the same depth and window as the baseline pre-medication windows were obtained. Immediately prior to initial TCD exams, a neurological exam is carried out. At the time of initiation of treatment for the cerebral vasospasm, at which time vasoactive medications are administered after the baseline TCD and neuro exam are obtained, repeat TCD exams are carried out and when medication effects on the intracranial circulation were identified, repeat neurological exams are obtained. In 5 patients, P300 are obtained prior to initiation of treatment and, again, several months later. The same methodology is used in those patients referred for evaluation of possible MS-like syndrome as recognized in the recent global settlement. With these patients, triple evoked potentials, EEG and qEEG, and a vascular evaluation as outlined above is carried out in all patients, and in 11 who decided to attempt treatment with vasoactive drugs, the methodology outlined above for initiation of as in the MVA-related post-concussion syndrome are used. 10 of the 19 MS-like syndrome patients additionally had brain MRI tests performed. […]

[4] = test system: patient with migraine, schizophrenic reaction and vasospasm; assay: Case study: psychosis caused by cerebral ischemia, EEG and TCD; assay type: in vivo, human patient; conditions: single patient
[5] = human, in vivo, listed as Nitroglycerine
[6] = second TCD of the day after repetitive applications
[7] = third TCD of the day after repetitive applications

O=[N+]([O-])OCC(CO[N+](=O)[O-])O[N+](=O)[O-] [Nitroglycerin]
effect on vessels seen on TCD / ultrasound (vasoconstriction or dilatation) ([1]; human, in vivo): resulted in vascular dilatation | headache ([1]; human, in vivo): improvement in the patient's headache | neurological exam and other neurological abnormalities ([1]; human, in vivo): improvement of any other neurological abnormalities | headache [1, 5]: alleviated or treated the headache | neurological exam and other neurological abnormalities [1, 5]: clinical and neurological exam improvement | transient supersensitivity (transient worsening of the vasospasm) on early administration ([1]; witnessed on TCD or clinically): can give transient severe vasoconstrictive episodes | concentration (self-assessment) ([2]; same day serial testing): significant improvement in concentration | neurological exam (balance testing) ([2]; same day serial testing): exam progressively normalized | right MCA mean flow velocity [2, 6]: 0.79 meters/second | left MCA mean flow velocity [2, 6]: 0.84 meters/second | right MCA mean flow velocity [2, 7]: 0.72 meters/second | left MCA mean flow velocity [2, 7]: 0.79 meters/second | follow-up TCD at the end of application of the patch ([3]; 3 patients): confirmed reduction of the vasospasm | lower extremity hyper-reflexia, Rhomberg and tandem gait abnormalities ([3]; human, in vivo): all resolved | headache ([3]; patches applied for 10 minutes to 1 hour, 5 patients): headache resolved | headaches / migraines [4]: complete resolution of their daily headaches; also recorded: headaches completely resolved as did memory disturbances, concentration problems and emotional lability; also recorded: responded promptly
